System in the first data set: not listed separately
The data set can be described thus: DRUGMATRIX: Calcium Channel Type L, Benzothiazepine radioligand binding (ligand: [3H] Diltiazem). As to conditions: Not Active = under 50% inhibition at 10 µM. The class given is cell membranes, Rattus norvegicus, Wistar, Brain, Membrane.
Sequence of D(1A) dopamine receptor (P21728 whole entry): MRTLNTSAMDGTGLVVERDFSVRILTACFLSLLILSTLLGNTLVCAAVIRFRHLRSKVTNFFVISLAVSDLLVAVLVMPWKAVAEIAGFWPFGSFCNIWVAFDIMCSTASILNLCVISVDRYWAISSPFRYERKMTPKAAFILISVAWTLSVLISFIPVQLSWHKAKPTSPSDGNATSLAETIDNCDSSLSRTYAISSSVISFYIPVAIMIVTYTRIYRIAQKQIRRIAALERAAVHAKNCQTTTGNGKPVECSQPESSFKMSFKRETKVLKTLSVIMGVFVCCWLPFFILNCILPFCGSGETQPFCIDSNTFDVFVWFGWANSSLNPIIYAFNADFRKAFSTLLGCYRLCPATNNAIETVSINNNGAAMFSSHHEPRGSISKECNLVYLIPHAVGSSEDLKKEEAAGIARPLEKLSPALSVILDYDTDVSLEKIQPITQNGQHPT
Sequence of Beta-3 adrenergic receptor (P13945 whole entry): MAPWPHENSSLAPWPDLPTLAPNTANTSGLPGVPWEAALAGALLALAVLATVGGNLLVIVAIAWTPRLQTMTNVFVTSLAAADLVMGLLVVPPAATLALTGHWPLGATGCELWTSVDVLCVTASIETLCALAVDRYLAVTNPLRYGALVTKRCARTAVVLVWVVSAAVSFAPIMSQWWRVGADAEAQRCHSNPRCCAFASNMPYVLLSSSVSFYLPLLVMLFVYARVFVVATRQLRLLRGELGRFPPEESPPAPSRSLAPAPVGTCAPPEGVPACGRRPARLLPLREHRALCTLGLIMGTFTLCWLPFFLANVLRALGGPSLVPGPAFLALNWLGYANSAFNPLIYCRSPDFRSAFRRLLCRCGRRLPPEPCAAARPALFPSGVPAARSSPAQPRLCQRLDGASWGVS
Sequence of 5-hydroxytryptamine receptor 2B (P41595 whole entry): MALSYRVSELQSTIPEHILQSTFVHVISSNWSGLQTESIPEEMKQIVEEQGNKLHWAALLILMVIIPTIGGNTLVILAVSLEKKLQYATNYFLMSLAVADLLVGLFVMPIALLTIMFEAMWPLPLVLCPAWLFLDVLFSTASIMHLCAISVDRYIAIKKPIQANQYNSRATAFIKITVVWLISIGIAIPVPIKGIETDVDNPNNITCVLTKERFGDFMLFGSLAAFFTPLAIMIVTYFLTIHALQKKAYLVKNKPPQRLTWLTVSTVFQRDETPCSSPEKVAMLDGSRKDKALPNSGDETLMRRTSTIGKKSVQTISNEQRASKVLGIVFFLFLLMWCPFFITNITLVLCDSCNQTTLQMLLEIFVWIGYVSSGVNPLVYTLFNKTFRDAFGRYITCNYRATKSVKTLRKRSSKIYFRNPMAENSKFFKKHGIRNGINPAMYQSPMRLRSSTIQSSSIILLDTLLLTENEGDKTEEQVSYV
Sequence of Cytochrome P450 2D6 (P10635 whole entry): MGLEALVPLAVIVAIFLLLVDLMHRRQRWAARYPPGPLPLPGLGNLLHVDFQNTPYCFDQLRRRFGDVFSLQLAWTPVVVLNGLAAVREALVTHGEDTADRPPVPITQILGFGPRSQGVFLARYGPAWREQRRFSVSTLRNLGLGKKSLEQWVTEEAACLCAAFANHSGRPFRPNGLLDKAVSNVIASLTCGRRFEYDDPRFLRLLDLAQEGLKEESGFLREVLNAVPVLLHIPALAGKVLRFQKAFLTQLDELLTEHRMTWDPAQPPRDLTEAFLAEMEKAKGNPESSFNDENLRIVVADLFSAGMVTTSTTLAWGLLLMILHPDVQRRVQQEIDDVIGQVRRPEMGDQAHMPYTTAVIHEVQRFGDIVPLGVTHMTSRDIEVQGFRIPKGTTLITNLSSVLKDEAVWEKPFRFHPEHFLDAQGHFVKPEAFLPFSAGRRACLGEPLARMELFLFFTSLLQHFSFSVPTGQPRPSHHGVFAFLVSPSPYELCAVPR
GOLD SODIUM THIOMALATE: the IC50 entry is listed as “Not Active” and the Ki entry is given as “Not Active”.
Take `CC[N+](CC)(CC)CCOc1cccc(OCC[N+](CC)(CC)CC)c1OCC[N+](CC)(CC)CC.[I-].[I-].[I-]` [GALLAMINE TRIETHIODIDE]: the IC50 result is reported as “Not Active” and the Ki entry is recorded as “Not Active”.
Regarding `OCc1ccccc1` [BENZYL ALCOHOL], the IC50 entry is “Not Active” and the Ki result is on record as “Not Active”.

The next data set has as its target T1, Adenosine receptor A3 (Homo sapiens, UniProt P0DMS8).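 Also: radioligand binding assay with AB-MECA serving as the labeled ligand; in other assays of this panel Not Active means under 50% inhibition at 10 µM.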
T1 sequence (P0DMS8 whole entry): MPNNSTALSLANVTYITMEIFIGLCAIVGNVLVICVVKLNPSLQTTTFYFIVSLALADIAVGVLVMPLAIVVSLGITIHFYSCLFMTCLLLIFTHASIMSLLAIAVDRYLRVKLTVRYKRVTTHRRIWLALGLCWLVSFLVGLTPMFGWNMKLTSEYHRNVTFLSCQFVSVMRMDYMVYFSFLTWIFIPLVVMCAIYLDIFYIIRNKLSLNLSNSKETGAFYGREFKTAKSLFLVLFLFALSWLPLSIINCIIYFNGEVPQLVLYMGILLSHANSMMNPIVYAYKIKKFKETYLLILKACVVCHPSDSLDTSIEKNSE
Experiment: not given
Type of data set: cell membranes, CHO-K1, Membrane. As to conditions: cho-k1.
With `CC[N+](CC)(CC)CCOc1cccc(OCC[N+](CC)(CC)CC)c1OCC[N+](CC)(CC)CC.[I-].[I-].[I-]` [GALLAMINE TRIETHIODIDE], the IC50 result is “Not Active”.
Still for that read-out and setting: as for `OCc1ccccc1` [BENZYL ALCOHOL], the entry is “Not Active”.

The data set is the same for the next values; noted with them: cho-k1; read-out: IC50.
Turning to GOLD SODIUM THIOMALATE, the IC50 is 1490 nM.

Staying with this data set, now noted: cho-k1; read-out: Ki.
Consider GOLD SODIUM THIOMALATE, for which the Ki is 843 nM.

The target of a further data set is T2, C-X-C chemokine receptor type 2 (Homo sapiens, UniProt P25025). Also: in other assays of this panel Not Active means under 50% inhibition at 10 µM.
T2 sequence (P25025 whole entry): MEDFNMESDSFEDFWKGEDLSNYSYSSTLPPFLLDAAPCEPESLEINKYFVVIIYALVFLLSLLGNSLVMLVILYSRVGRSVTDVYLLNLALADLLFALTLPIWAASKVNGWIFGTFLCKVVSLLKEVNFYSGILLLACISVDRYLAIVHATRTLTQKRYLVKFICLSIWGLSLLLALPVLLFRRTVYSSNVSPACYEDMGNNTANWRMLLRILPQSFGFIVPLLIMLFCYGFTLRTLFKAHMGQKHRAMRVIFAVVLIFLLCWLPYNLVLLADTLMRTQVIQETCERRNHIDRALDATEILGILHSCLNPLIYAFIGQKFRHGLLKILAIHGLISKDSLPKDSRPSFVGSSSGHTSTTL
Experiment: not given
Particulars: cho-k1. Type of data set: cell membranes, Membrane.
Consider GOLD SODIUM THIOMALATE, for which the IC50 result was “Not Active” and the Ki result is “Not Active”.
In the case of `CC[N+](CC)(CC)CCOc1cccc(OCC[N+](CC)(CC)CC)c1OCC[N+](CC)(CC)CC.[I-].[I-].[I-]` [GALLAMINE TRIETHIODIDE], the IC50 entry is “Not Active”.
Consider `OCc1ccccc1` [BENZYL ALCOHOL], for which the IC50 entry is “Not Active”.

For the next data set, the target named is Cytochrome P450 2E1 (Homo sapiens, UniProt P05181). Also: in other assays of this panel Not Active means under 50% inhibition at 10 µM.
Sequence of Cytochrome P450 2E1 (P05181 whole entry): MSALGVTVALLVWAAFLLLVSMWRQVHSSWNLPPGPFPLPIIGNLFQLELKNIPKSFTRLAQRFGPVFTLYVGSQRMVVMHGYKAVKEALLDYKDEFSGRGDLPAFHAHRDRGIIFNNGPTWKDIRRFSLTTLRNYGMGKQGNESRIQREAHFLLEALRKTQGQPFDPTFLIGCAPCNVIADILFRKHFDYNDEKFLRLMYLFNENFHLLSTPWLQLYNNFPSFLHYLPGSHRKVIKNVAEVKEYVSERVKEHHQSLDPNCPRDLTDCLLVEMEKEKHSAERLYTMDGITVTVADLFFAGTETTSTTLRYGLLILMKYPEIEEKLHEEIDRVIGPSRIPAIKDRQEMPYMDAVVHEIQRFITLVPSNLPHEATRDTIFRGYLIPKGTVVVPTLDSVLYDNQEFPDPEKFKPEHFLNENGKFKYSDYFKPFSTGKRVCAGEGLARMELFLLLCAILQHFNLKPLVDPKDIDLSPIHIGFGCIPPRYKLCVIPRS
Experiment: not given
Particulars: bti-tn-5b1-4.
Regarding GOLD SODIUM THIOMALATE, the IC50 entry is on record as “Not Active” and the Ki entry was “Not Active”.
As for `CC[N+](CC)(CC)CCOc1cccc(OCC[N+](CC)(CC)CC)c1OCC[N+](CC)(CC)CC.[I-].[I-].[I-]` [GALLAMINE TRIETHIODIDE], the IC50 result is listed as “Not Active” and the Ki entry is listed as “Not Active”.
In the case of `OCc1ccccc1` [BENZYL ALCOHOL], the IC50 entry was “Not Active” and the Ki result is recorded as “Not Active”.

System in a further data set: not listed separately
The data set can be described thus: DRUGMATRIX: GABAA, Chloride Channel, TBOB radioligand binding (ligand: [3H] TBOB). The class given is cell membranes, Rattus norvegicus, Wistar, Cerebral cortex, Membrane. As to conditions: Not Active = under 50% inhibition at 10 µM.
On to GOLD SODIUM THIOMALATE, for which the IC50 result is “Not Active” and the Ki result is “Not Active”.
In the case of `CC[N+](CC)(CC)CCOc1cccc(OCC[N+](CC)(CC)CC)c1OCC[N+](CC)(CC)CC.[I-].[I-].[I-]` [GALLAMINE TRIETHIODIDE], the IC50 entry is on record as “Not Active” and the Ki entry was “Not Active”.
Turning to `OCc1ccccc1` [BENZYL ALCOHOL], the IC50 result is given as “Not Active” and the Ki result is reported as “Not Active”.

In another data set the target is 5-hydroxytryptamine receptor 6 (Homo sapiens, UniProt P50406). Also: in other assays of this panel Not Active means under 50% inhibition at 10 µM.
Sequence of 5-hydroxytryptamine receptor 6 (P50406 whole entry): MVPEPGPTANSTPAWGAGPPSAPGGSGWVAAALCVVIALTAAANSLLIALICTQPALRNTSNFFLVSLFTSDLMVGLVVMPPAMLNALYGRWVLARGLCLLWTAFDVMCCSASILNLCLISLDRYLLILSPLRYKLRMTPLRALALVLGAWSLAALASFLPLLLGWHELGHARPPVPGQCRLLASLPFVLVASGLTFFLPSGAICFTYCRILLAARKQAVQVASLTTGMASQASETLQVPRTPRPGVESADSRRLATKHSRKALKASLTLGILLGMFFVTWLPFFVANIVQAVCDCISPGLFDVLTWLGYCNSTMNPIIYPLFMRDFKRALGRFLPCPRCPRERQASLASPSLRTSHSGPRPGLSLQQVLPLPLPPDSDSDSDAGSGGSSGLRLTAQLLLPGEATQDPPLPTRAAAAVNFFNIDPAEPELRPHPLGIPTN
Experiment: not given
The class given is cell membranes, HeLa, Membrane. As to conditions: hela.
Consider GOLD SODIUM THIOMALATE, for which the IC50 entry is recorded as “Not Active” and the Ki result was “Not Active”.
On to `CC[N+](CC)(CC)CCOc1cccc(OCC[N+](CC)(CC)CC)c1OCC[N+](CC)(CC)CC.[I-].[I-].[I-]` [GALLAMINE TRIETHIODIDE], for which the IC50 result is reported as “Not Active”.
Same read-out and setting: as for `OCc1ccccc1` [BENZYL ALCOHOL], the entry is “Not Active”.

A further data set concerns the target Cytochrome P450 2D6 (Homo sapiens, UniProt P10635). Also: in other assays of this panel Not Active means under 50% inhibition at 10 µM.
Experiment: not given
Particulars: bti-tn-5b1-4.
For the compound GOLD SODIUM THIOMALATE, the IC50 entry is “Not Active” and the Ki result is recorded as “Not Active”.
In the case of `CC[N+](CC)(CC)CCOc1cccc(OCC[N+](CC)(CC)CC)c1OCC[N+](CC)(CC)CC.[I-].[I-].[I-]` [GALLAMINE TRIETHIODIDE], the IC50 entry is given as “Not Active” and the Ki result is “Not Active”.
Turning to `OCc1ccccc1` [BENZYL ALCOHOL], the IC50 result is recorded as “Not Active” and the Ki result was “Not Active”.

In a further data set the target is T3, Alpha-1B adrenergic receptor (Rattus norvegicus, UniProt P15823).
T3 sequence (P15823 whole entry): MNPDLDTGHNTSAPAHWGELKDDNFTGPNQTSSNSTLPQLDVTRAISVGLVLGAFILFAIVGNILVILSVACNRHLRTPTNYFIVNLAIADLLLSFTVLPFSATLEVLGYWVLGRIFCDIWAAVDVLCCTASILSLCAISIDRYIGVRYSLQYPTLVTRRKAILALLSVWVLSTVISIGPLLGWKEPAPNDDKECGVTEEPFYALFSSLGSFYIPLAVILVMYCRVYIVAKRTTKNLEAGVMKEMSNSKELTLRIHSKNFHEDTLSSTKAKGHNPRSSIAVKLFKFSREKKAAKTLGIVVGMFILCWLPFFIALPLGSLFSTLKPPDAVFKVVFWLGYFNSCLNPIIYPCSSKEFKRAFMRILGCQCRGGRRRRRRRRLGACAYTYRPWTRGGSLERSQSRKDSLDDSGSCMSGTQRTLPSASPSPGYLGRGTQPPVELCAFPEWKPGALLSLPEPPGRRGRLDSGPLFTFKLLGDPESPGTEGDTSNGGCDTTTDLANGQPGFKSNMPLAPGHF
Put plainly: DRUGMATRIX: Alpha-1B adrenergic receptor radioligand binding (ligand: prazosin). Type of data set: cell membranes, Wistar, Liver, Membrane. Particulars: Not Active = under 50% inhibition at 10 µM.
As for GOLD SODIUM THIOMALATE, the IC50 result is recorded as “Not Active” and the Ki result is recorded as “Not Active”.
As to `CC[N+](CC)(CC)CCOc1cccc(OCC[N+](CC)(CC)CC)c1OCC[N+](CC)(CC)CC.[I-].[I-].[I-]` [GALLAMINE TRIETHIODIDE], the IC50 entry was “Not Active”.
Consider `OCc1ccccc1` [BENZYL ALCOHOL], for which the IC50 result was “Not Active”.

A further data set addresses D(1A) dopamine receptor (Homo sapiens, UniProt P21728). The data set can be described thus: DRUGMATRIX: Dopamine D1 radioligand binding (ligand: [3H] SCH-23390). Type of data set: cell membranes, CHO, Membrane. Particulars: cho; Not Active = under 50% inhibition at 10 µM.
On to GOLD SODIUM THIOMALATE, for which the IC50 entry is recorded as “Not Active” and the Ki entry was “Not Active”.
As for `CC[N+](CC)(CC)CCOc1cccc(OCC[N+](CC)(CC)CC)c1OCC[N+](CC)(CC)CC.[I-].[I-].[I-]` [GALLAMINE TRIETHIODIDE], the concentration for half-maximal inhibition (IC50) result is given as “Not Active”.
Same read-out and setting: as for `OCc1ccccc1` [BENZYL ALCOHOL], the entry is “Not Active”.

Another data set has as its target 5-hydroxytryptamine receptor 2B (Homo sapiens, UniProt P41595). Also: in other assays of this panel Not Active means under 50% inhibition at 10 µM.
Experiment: not given
The class given is cell membranes, CHO-K1, Membrane. As to conditions: cho-k1.
As to GOLD SODIUM THIOMALATE, the IC50 result is reported as “Not Active” and the Ki entry is on record as “Not Active”.
`CC[N+](CC)(CC)CCOc1cccc(OCC[N+](CC)(CC)CC)c1OCC[N+](CC)(CC)CC.[I-].[I-].[I-]` [GALLAMINE TRIETHIODIDE]: the IC50 entry is given as “Not Active”.
As for `OCc1ccccc1` [BENZYL ALCOHOL], the 50% inhibitory concentration (IC50) entry is reported as “Not Active”.

The next data set has as its target Beta-3 adrenergic receptor (Homo sapiens, UniProt P13945). Put plainly: DRUGMATRIX: Adrenergic beta3 radioligand binding (ligand: [125I] Cyanopindolol). The class given is cell membranes, HEK293, Membrane. As to conditions: hek293; Not Active = under 50% inhibition at 10 µM.
Take GOLD SODIUM THIOMALATE: the IC50 result was “Not Active” and the Ki result is given as “Not Active”.
Consider `CC[N+](CC)(CC)CCOc1cccc(OCC[N+](CC)(CC)CC)c1OCC[N+](CC)(CC)CC.[I-].[I-].[I-]` [GALLAMINE TRIETHIODIDE], for which the IC50 result is listed as “Not Active”.
Turning to `OCc1ccccc1` [BENZYL ALCOHOL], the IC50 entry is “Not Active”.

The next data set addresses T4, Polyunsaturated fatty acid lipoxygenase ALOX15 (Oryctolagus cuniculus, UniProt P12530).
T4 sequence (P12530 whole entry): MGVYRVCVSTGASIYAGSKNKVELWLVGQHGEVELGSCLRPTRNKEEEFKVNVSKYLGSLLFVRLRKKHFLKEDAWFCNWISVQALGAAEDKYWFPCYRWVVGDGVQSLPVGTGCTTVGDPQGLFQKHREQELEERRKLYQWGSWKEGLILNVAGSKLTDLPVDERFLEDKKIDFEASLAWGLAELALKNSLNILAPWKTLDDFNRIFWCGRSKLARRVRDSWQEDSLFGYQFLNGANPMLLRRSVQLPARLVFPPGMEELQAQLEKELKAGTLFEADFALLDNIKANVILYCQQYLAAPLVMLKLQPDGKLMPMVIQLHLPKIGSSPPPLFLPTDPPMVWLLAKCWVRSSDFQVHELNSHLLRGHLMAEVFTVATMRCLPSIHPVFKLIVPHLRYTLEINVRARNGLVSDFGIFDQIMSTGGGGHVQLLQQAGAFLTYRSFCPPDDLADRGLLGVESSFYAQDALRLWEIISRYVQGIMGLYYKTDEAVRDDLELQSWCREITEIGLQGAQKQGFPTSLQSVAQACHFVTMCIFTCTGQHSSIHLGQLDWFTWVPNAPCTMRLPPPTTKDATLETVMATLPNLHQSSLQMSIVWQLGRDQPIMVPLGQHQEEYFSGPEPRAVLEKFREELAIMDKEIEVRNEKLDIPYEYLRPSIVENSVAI
Put plainly: biochemical. Type of data set: tissue-based, Reticulocytes. Particulars: reticulocytes.
In the case of GOLD SODIUM THIOMALATE, the IC50 result is listed as “Not Active” and the Ki entry is listed as “Not Active”.
Turning to `CC[N+](CC)(CC)CCOc1cccc(OCC[N+](CC)(CC)CC)c1OCC[N+](CC)(CC)CC.[I-].[I-].[I-]` [GALLAMINE TRIETHIODIDE], the IC50 result is “Not Active”.
Same read-out and setting: to `OCc1ccccc1` [BENZYL ALCOHOL] belongs “Not Active”.

For a further data set, the target named is Histamine H2 receptor (Homo sapiens, UniProt P25021). Also: in other assays of this panel Not Active means under 50% inhibition at 10 µM.
Sequence of Histamine H2 receptor (P25021 whole entry): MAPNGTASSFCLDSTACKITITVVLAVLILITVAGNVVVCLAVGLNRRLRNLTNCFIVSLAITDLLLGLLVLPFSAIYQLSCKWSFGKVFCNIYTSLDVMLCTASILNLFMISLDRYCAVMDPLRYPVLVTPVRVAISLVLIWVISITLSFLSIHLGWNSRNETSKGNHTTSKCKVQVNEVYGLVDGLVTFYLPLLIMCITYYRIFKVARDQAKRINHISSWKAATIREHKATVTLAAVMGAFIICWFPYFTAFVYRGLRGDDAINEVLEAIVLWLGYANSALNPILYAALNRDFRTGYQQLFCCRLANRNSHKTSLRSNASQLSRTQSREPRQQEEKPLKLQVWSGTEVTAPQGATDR
Experiment: not given
Type of data set: cell membranes, CHO-K1, Membrane. As to conditions: cho-k1.
Turning to GOLD SODIUM THIOMALATE, the IC50 result is reported as “Not Active” and the Ki result is given as “Not Active”.
Consider `CC[N+](CC)(CC)CCOc1cccc(OCC[N+](CC)(CC)CC)c1OCC[N+](CC)(CC)CC.[I-].[I-].[I-]` [GALLAMINE TRIETHIODIDE], for which the IC50 result is “Not Active”.
In the case of `OCc1ccccc1` [BENZYL ALCOHOL], the IC50 entry is recorded as “Not Active”.

(Values after ChEMBL document CHEMBL1909046, “DrugMatrix in vitro pharmacology data”.)
